Laboratory results published in paper PMC8521193, “A Novel Polyphenol Oxidoreductase OhLac from Ochrobactrum sp. J10 for Lignin Degradation” (Frontiers in Microbiology, 2021).
Each block holds one compound with its values, some of them ahead of it.

Assays:
Experiment in all cases: spectrophotometric oxidation, […] nm
Format in all cases: biochemical
OhLac [1] = tested on: T1, OhLac; details: pH 5.0, 30°C, Cu2+ 5.00 mM
T1 construct: full length, 837 bp ORF, 279 aa as printed, about 31 kDa; pET28a(+) NcoI/XhoI; N-terminal His6 printed (these sites would rather give a C-terminal His6); E. coli BL21(DE3), Ni-NTA; monomer

OhLac [2] = tested on: T1, OhLac; details: pH 3.0, 50°C, Cu2+ 0.25 mM
OhLac [3] = tested on: T1, OhLac; details: pH 5.0, 40°C, Cu2+ 0.50 mM

Km (OhLac [1]): 1130 µM
Structure (SMILES): COc1cccc(OC)c1O [2,6-DMP]

Km (OhLac [2]): 1060 µM
Structure (SMILES): CCn1c(=NN=c2sc3cc(S(=O)(=O)O)ccc3n2CC)sc2cc(S(=O)(=O)O)ccc21 [ABTS]

Km (OhLac [3]): 523 ± 9.2 µM
Structure (SMILES): COc1ccccc1O [guaiacol]
